These results are taken from patent publication US10736880B2, “Therapeutics for preterm labor management” (THE BOARD OF REGENTS OF THE UNIVERSITY OF TEXAS SYSTEM, priority 2015, dated 2020).

Values joined by “and” are separate entries in the source; they are usually repeats but may differ in a detail not shown here. Identical values can stand only once. Where a SMILES comes first, the peptide text is derived from it. Bridges are numbered along the chain shown (N, C = ends). [ ]: non-standard residue; d: D form. Orn = NCCC[C@H](N)C(=O)O; Mpa = O=C(O)CCS

A short description of series [1]: ORA levels in maternal organs by LC-MS/MS. The class given is in vivo, pregnant mice. The following applies: after LIP-IND-ORA. From the text:
To enable faster clinical translation of the proposed approach, a clinically used^33 oxytocin receptor antagonist (ORA, or atosiban) was used as the targeting element. […] Thus, the goal of using ORA as a safe targeting moiety for pregnant women was successfully in delivering indomethacin to the uterus directly. The principles of nanomedicine have been applied to optimize tocolytics for the treatment of preterm labor, and the novel drug delivery system can provide a path for a new paradigm-shifting direction to advance the field of obstetrics.

For series [2], the system named is prostaglandin E2 (PGE2). Description: PGE2 in uterine tissue incubated ex vivo, ELISA. The following applies: 40 min incubation, mean±SEM. On the set-up: species or system mouse. How it is done:
Another set of pregnant CD1 mice at GD 19 (n=5) was used to evaluate uterus PGE2 levels. […] PGE2 levels in each sample were then determined based on the instructions in the ELISA kit (ADI-901-001, Enzo Life Science, New York, USA). The concentration of PGE2 were expressed as pg/mL and reported as the mean±SEM.
In general terms: An ELISA detects its analyte on a solid surface through an enzyme-linked reagent.

Series [3] relates to Prostaglandin E2 (PGE2). The series is described as follows: PGE2 levels in uterine tissue after administration (Example 1). Type of series: in vivo, pregnant mouse. The conditions noted are these: four hours following administration.
The nature of series [4]: Indomethacin levels in uterus, placenta and fetus after IND or LIP-IND (Example 1). The class given is in vivo, pregnant mouse. The following applies: four hours following administration, mean ± sem; for concentration at 4 h: female, mouse.
Series [5] concerns uterus isolated from pregnant mice. Description: Uterine contractility ex vivo, pregnant mouse. The following applies: absence of oxytocin, 40 min incubation, IND 10-5 mol/L, n=6, mean±SEM. From the text: (§1) Uterine contractility ex vivo. An established ex vivo pregnant mouse or human models of uterine contractility was used to measure the ability of LIP-IND-ORA to inhibit uterine contractions. For mice, on GD19, timed-pregnant animals (N=6) underwent CO2 inhalation euthanasia, the maternal uteri were excised and placed into Krebs physiological solution. In the case of human tissue, strips from uterine biopsies obtained at cesarean section from non-laboring, term, healthy women were used. Uterine ring segments, 4 mm in width, were cut, and the fetuses and placentas were gently removed. […]
(§2) Changes in isometric tension were recorded with isometric force transducers (Harvard Apparatus, South Natik, Mass.) connected and stored to an online computer with data acquisition software (WINDAQ-200; DATAQ). The data was acquired and analyzed using Windaq data acquisition system (Dataq Instruments Inc, Akron, Ohio). Spontaneous contractile activity for each uterine ring was analyzed as an integral activity over 40 min before (basal activity) and after application of each study drug. […] OXY induced contractile response was expressed as an integral activity over 20 min of each OXY dose and the baseline uterine contractility54,55,56. […] Data was expressed as mean±SEM.

For series [6], the system named is preterm birth. The conditions noted are these: prior experiments, 90% in control; cited from earlier work.
Series [7] has as its system strips from uterine biopsies obtained at cesarean section. The series is described as follows: Human myometrial contractility study (organ bath). The conditions noted are these: highest concentration of 10^−6.
From the text: as §1, §2

For series [8], the system named is LPS-induced preterm birth. The series is described as follows: LPS-induced preterm birth in vivo. The following applies: IND 1 mg/kg daily tail vein. On the set-up: species or system pregnant CD1 mice. How it is done: Preterm birth in vivo. The established in vivo preterm pregnant mouse model was used to test the ability of LIP-IND-ORA to prevent preterm birth. LPS is a commonly used model to induce labor in murine models. On GD 16, timed-pregnant CD1 mice were administered lipopolysaccharide (LPS, Sigma, USA) (25 μg/kg) via intraperitoneal injection. […] Since the LIP-IND-ORA solution color was visibly pink and due to limited resources to create a placebo, the randomization was not blinded. Each day after the LPS administration, the preterm birth rate was determined as the number of pregnant mice spontaneously delivering prior to GD18. Animals were housed in single cages and were monitored by either direct observation or by video camera for the duration of the treatment period to confirm timing of delivery. The rate of preterm birth was expressed as percent and length of pregnancy after LPS administration was expressed in hours. Results were reported as median±sem.

Series [9] can be described thus: IND concentrations in maternal uterus and fetus by LC-MS/MS. The following applies: female, CD1, mouse, intravenous, 1 mg/kg. Type of series: in vivo, pregnant CD1 mice. The method, then:
Biodistribution study in vivo. […] The in vivo doses were maintained across the study. After 4 h, pregnant mice were sacrificed by CO2 inhalation, followed by laparotomy to retrieve maternal liver, uteri, placentas and fetuses. The onset of action of LIP-IND-ORA is unknown when administered intravenously. […] Based on these prior studies, 4 h was chosen as the period of exposure.
Uterine and fetal tissues were homogenized in 1 mL of ice-cold methanol/water (7:3 v/v). Phenacetin (final concentration 20 ng/mL) was added to each sample before centrifugation at 15,000 rpm for 10 min. Supernatant was dried under nitrogen and reconstituted in 0.1% formic acid aqueous solution followed by protein precipitation with acetonitrile (1:2). Samples were centrifuged again, supernatant was transferred to vial and 10 μL was injected to Shimadzu triple quad 8040 MS connected to LC system. […] Method parameters were: LOD=3.9 ng/mL (accuracy 76%, S/N>3); LOQ=15.6 ng/mL (accuracy 85%; CV<10%; S/N>10) with correlation coefficient for linear regression R2=0.992.

With `CCOc1ccc(C[C@H]2NC(=O)CCSSC[C@@H](C(=O)N3CCC[C@H]3C(=O)N[C@@H](CCCN)C(=O)NCC(N)=O)NC(=O)[C@H](CC(N)=O)NC(=O)[C@H]([C@@H](C)O)NC(=O)[C@H]([C@@H](C)CC)NC2=O)cc1` [ORA, atosiban] ([Mpa][dY](Et)ITNCP[Orn]G-NH2; disulfide 1-6), the “ORA levels in the maternal organs” value in [1] is on record as “not detectable”.

On to `COc1ccc2c(c1)c(CC(=O)O)c(C)n2C(=O)c1ccc(Cl)cc1` [IND, indomethacin], for which the “PGE2 levels in the uterus exposed ex vivo” value in series [2] is 2,587.4±676.5 pg/mL. Moreover, the “PGE2 levels in the uterus” value in series [3] turned out to be 493.3 ± 89.0 pg/mL. Besides, the concentration at 4 h is 81.3 ± 24.7 ng/g in series [4] (fetus); 650 ± 78.4 ng/g in series [4] (placenta); 237 ± 21.6 ng/g in [4] (uterus); 245 ± 61.7 ng/g in [9] (fetus); 965 ± 312 ng/g in series [9] (uterus). Moreover, in series [4], the “Indomethacin level normalized per weight, fetus” value came out at 81.3 ± 24.7 ng/g. Also, in [5], the “percent inhibition of uterine contractions” value is 34.3±6.6% and 34.3±5.9%. For the same compound, in series [6], the “rate of preterm birth” value is listed as 30%. Moreover, in [7], the percent uterine contractions worked out at 67.2±8.4%. The “length of pregnancy after LPS administration” value in series [8] was determined as 30.0 ± 4.9 h. For the same compound, in series [8] (delivery prior to GD18), the “rate of LPS-induced preterm birth” value stood at 54.5%.
